Each structure is given as a SMILES string. Calls of active or inactive are those of the source. The calls are words filed in the database; no cut-off is given here.

The test system of assay [1] is Escherichia coli. Kind of assay: Reversible inhibition of Escherichia coli rhomboid GlpG assessed as residual activity preincubated for 30 mins followed by excess drug removal for 240 mins before FP-Rh addition measured after 1 hr by ABPP method.
Assay [2] concerns Escherichia coli. Briefly: Competitive inhibition of Escherichia coli rhomboid GlpG at 100 uM preincubated for 30 mins followed by FP-Rh addition measured after 1 hr by gel-based ABPP method.
In assay [3] the target is T1, Rhomboid protease GluP (Bacillus subtilis (strain 168)) (UniProt P54493).
T1 sequence (whole entry): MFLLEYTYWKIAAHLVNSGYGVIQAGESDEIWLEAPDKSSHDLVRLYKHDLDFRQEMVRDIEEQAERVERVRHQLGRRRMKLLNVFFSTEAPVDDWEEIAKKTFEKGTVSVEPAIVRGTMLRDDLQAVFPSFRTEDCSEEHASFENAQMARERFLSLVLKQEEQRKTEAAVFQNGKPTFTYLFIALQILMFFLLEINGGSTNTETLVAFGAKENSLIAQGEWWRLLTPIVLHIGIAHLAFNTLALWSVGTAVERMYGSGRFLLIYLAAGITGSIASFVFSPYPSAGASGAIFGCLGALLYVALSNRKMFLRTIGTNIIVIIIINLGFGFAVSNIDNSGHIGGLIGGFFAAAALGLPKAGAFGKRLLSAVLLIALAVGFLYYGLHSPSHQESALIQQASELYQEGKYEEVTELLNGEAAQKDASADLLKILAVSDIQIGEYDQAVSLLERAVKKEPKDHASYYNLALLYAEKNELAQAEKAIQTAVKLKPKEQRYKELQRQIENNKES
Briefly: Competitive inhibition of Bacillus subtilis rhomboid YqgP at 100 uM preincubated for 30 mins followed by FP-Rh addition measured after 1 hr by gel-based ABPP method.

Assay [4] relates to Escherichia coli. Briefly: Irreversible inhibition of Escherichia coli rhomboid GlpG assessed as residual activity at 10 uM preincubated for 30 mins followed by excess drug removal for 0 to 240 mins before FP-Rh addition measured after 1 hr by ABPP method.
Assay [5] can be described thus: Inhibition of bovine chymotrypsin using Suc-AAF-AMC as substrate preincubated for 30 mins followed by substrate addition measured for 20 mins by fluorescence assay. Set-up: species or system Bos taurus.
Assay [6] deals with Escherichia coli. Briefly: Competitive inhibition of Escherichia coli rhomboid GlpG assessed as residual enzyme activity at 100 uM preincubated for 30 mins followed by FP-Rh addition measured after 1 hr by gel-based ABPP method.
Assay [7] relates to Escherichia coli. Kind of assay: (§1) Inhibition of rhomboid GlpG in Escherichia coli MC4100 outer membrane permeabilized mutant containing delta-lptD4213 preincubated for 15 mins followed by pPR61 (pD881-SR_MBP-LacYTM2-Trx) substrate addition measured after 4 hrs by fluorescence based Western blot. (In general: In western blotting, separated proteins are transferred to a membrane and probed.)

For assay [8], the target named is T1, Rhomboid protease GluP (Bacillus subtilis (strain 168)). Briefly: Competitive inhibition of Bacillus subtilis rhomboid YqgP assessed as residual enzyme activity at 100 uM preincubated for 30 mins followed by FP-Rh addition measured after 1 hr by gel-based ABPP method.
Assay [9] addresses T2, Rhomboid protease GluP (Bacillus subtilis (strain 168), UniProt P54493).
T2 sequence (P54493 whole entry): T1 sequence (whole entry)
Kind of assay: Competitive inhibition of Bacillus subtilis rhomboid YqgP preincubated for 30 mins followed by FP-Rh addition measured after 1 hr by gel-based ABPP method.

A short description of assay [10]: Inhibition of bovine trypsin using Z-GGR-AMC as substrate preincubated for 30 mins followed by substrate addition measured for 20 mins by fluorescence assay. Set-up: species or system Bos taurus.
Assay [11] in a line: Competitive inhibition of Escherichia coli rhomboid GlpG preincubated for 30 mins followed by FP-Rh addition measured after 1 hr by gel-based ABPP method.
Assay [12] is described as follows: as §1.
Assay [13] in a line: Selectivity index, ratio of IC50 for competitive inhibition of Bacillus subtilis rhomboid YqgP to IC50 for competitive inhibition of Escherichia coli rhomboid GlpG.
The subject of assay [14] is Escherichia coli. Briefly: Reversible inhibition of Escherichia coli rhomboid GlpG assessed as residual activity at 10 uM preincubated for 30 mins followed by excess drug removal for 30 mins before FP-Rh addition measured after 1 hr by ABPP method.
Assay [15] in a line: Selectivity index, ratio of IC50 for competitive inhibition of Escherichia coli rhomboid GlpG to IC50 for competitive inhibition of Bacillus subtilis rhomboid YqgP.

Take `O=c1oc(Cl)c(Cl)c2ccccc12`: the Activity in [1] is 50%.
Consider `Cc1cccc2nc(OCCc3ccccc3)oc(=O)c12`, for which the inhibition result in [2] and in assay [3] was “inactive” in each case.
The term IC50 denotes the concentration that inhibits the measured activity by half. A high value points to weaker potency in that assay. Take `C#CCOc1nc2cccc(Cl)c2c(=O)o1`: the inhibition entry in assay [4], in assay [2] and in assay [3] was “Active” in each case. The IC50 in assay [5] was 410 nM; in [9], 6200 nM; in assay [10] it was 1200 nM; in assay [11] it was 1700 nM. The Activity in [6] and in [8] was below 5% each time. The inhibition entry in [7] is “inactive”.
For `O=c1oc(OCc2ccccc2)nc2cccc(Cl)c12`, in [4], the inhibition entry is “Active”. Also, the IC50 in assay [5] is below 100 nM; in [9], 1600 nM; in assay [10] it was below 100 nM; in assay [11] it was 1200 nM. The Activity in assay [6] and in [8] was below 5% throughout. Moreover, in assay [7], the inhibition result was “inactive”.
As for `Cc1ccc2nc(OCc3ccccc3)oc(=O)c2c1`, the IC50 is below 100 nM in assay [5], 4600 nM in assay [9] and below 100 nM in assay [10]. Besides, the Activity in assay [6] and in assay [8] was below 5% throughout.
`C#CCCCc1nc2cccc(C)c2c(=O)o1`: the inhibition result in assay [2] and in assay [3] was “Active” in each case.
On to `C#CCCOc1oc(=O)c2cc(N)ccc2c1Cl`, for which the inhibition result in [2] and in assay [3] was “Active” throughout.
For the compound `O=c1oc(OCCc2ccccc2)nc2cccc(Cl)c12`, the inhibition entry in assay [2] and in [3] was “inactive” in each case.
As to `Cc1cccc2nc(OCc3ccccc3)oc(=O)c12`, in assay [4], the inhibition result is “Active”. The IC50 was below 100 nM in assay [5]; 8500 nM in assay [12]; 15000 nM in assay [9]; below 100 nM in assay [10]; 1000 nM in [11]. Also, the Activity in assay [6] and in assay [8] was below 5% in each case. Also, the Ratio IC50 in [13] stood at 15.
For the compound `C#CCOc1nc2cccc(C)c2c(=O)o1`, the IC50 was below 100 nM in assay [5], 2800 nM in [9] and 1100 nM in assay [10]. Also, the Activity in assay [6] and in assay [8] was below 5% throughout.
As for `O=c1oc(OCc2ccccc2)nc2ccccc12`, the IC50 in assay [5] is below 100 nM; in assay [9], 3700 nM; in [10], below 100 nM; in assay [11] it was 2500 nM. Further, the Activity in assay [6] and in assay [8] was below 5% in each case. In assay [7], the inhibition result is “Active”. The inhibition result in assay [14] is “inactive”.
In the case of `O=c1oc(OCc2ccccc2)nc2cc3ccccc3cc12`, the IC50 is below 100 nM in assay [5], 7300 nM in assay [9], below 100 nM in [10] and 2400 nM in assay [11]. In addition, the Activity in [6] and in assay [8] was below 5% in each case.
In the case of `CCOc1nc2cccc(Cl)c2c(=O)o1`, the inhibition result in [4] was “Active”. For the same compound, the IC50 is below 100 nM in assay [5], 7100 nM in assay [9], below 100 nM in [10] and 2200 nM in assay [11]. Further, the Activity in assay [6] and in assay [8] was below 5% each time. The inhibition result in assay [7] is “inactive”.
On to `O=c1oc(OCc2ccccc2)nc2c(Cl)cccc12`, for which the IC50 in assay [5] was below 100 nM; in assay [9], 470 nM; in [10] it was below 100 nM; in [11], 63000 nM. Moreover, the Activity in assay [6] and in assay [8] was below 5% throughout. Besides, the Ratio IC50 in assay [15] was found to be 130.
Take `C#CCCCc1nc2cccc(Cl)c2c(=O)o1`: the inhibition entry in assay [2] and in [3] was “Active” in each case.

These data come from ChEMBL document CHEMBL4219119, “Benzoxazin-4-ones as novel, easily accessible inhibitors for rhomboid proteases” (Bioorg Med Chem Lett, 2018).
